# “Also recorded” adds a separate entry of the source.
# Tests used:
# Type in all cases: cell-based, human
# [1] = tested on: cytolytic T cell clone CTL IVSB; experiment: 51Cr release assay on peptide-sensitized HLA-A2 presenting cells with CTL IVSB; settings: SK29-MEL 1.218 and T202LB; peptide 100 μM down to 0.01 μM; E/T ratio 40/1; four hours
# Description: (§1) Using the methodologies described in examples 1-5, various fragments of the CDNA were cotransfected with a gene for HLA-A2 in COS-7 cells, and TNF release assays were performed. […] The 400 base fragment used corresponded to bases 711 to 1152 of SEQ ID NO: 1. The amino acid sequence for which the fragment codes was deduced, and this sequence was then compared to the information provided by Hunt et al., Science 255: 1261 (1992), and Falk et al., Nature 351: 290 (1991), the disclosures of which are both incorporated by reference in their entirety. These references discuss consensus sequences for HLA-A2 presented peptides. Specifically, Hunt discusses nonapeptides, where either Leu or Ile is always found at the second position, Leu being the “dominant residue”. The ninth residue is described as always being a residue with an aliphatic hydrocarbon side chain. Val is the dominant residue at this position. […]
# (§2) The tyrosinase loss variants, cytolytic T cell clones, and peptides were incubated for one hour in a solution containing ^51Cr, at 37° C., either with or without anti HLA-A2 antibody MA2.1, which was used to stabilize empty HLA-A2 molecules. […] After 30 minutes, effector cells were added at an E/T ratio of 40/1 and four hours later, 10λ of supernatant were collected and radioactivity counted.
# [2] = tested on: cytolytic T cell clone CTL 2/9; experiment: 51Cr release assay on peptide-sensitized HLA-A2 presenting cells with CTL 2/9; settings: SK29-MEL 1.218 and T202LB; peptide 100 μM down to 0.01 μM; E/T ratio 40/1; four hours
# Description: as §1, §2
# CTL clone CTL 210/9 = experiment: Parallel peptide recognition experiment with CTL 210/9
# Description: as §1
# as §2, with “counted. […]” for “counted.”
# CTL IVSB = experiment: TNF release by CTL IVSB on COS-7 cells cotransfected with HLA-A2 and cDNA pool or fragment; settings: COS-7 cotransfected with cDNA fragment and HLA-A2 gene
# Description: (§3) The amplified plasmids were then transfected into eukaryotic cells. Samples of COS-7 cells were seeded, at 15,000 cells/well into tissue culture flat bottom microwells, in Dulbeco's modified Eagles Medium (“DMEM”) supplemented with 10% fetal calf serum. The cells were incubated overnight at 37° C., medium was removed and then replaced by 30 μl/well of DMEM medium containing 10% Nu serum, 400 μg/ml DEAE-dextran, 100 μM chloroquine, 100 ng of plasmid pcDNA-I/Amp-A2 and 100 ng of DNA of a pool of the cDNA library described supra. Plasmid pcDNA-I/Amp-A2 contains the HLA-A2 gene from SK29-MEL. Following four hours of incubation at 37° C, the medium was removed, and replaced by 50 μl of PBS containing 10% DMSO. This medium was removed after two minutes and replaced by 200 μl of DMEM supplemented with 10% of FCS.
# (§4) Following this change in medium, COS cells were incubated for 48 hours at 37° C. Medium was then discarded, and 2000 cells of either of the described CTL clones were added, in 100 μl of Iscove medium containing 10% pooled human serum. When clone 210/9 was used, the medium was supplemented with 25 U/ml of IL-2. Supernatant was removed after 24 hours, and TNF content was determined in an assay on WEHI cells, as described by Traversari et al., Immunogenetics 35: 145-152 (1992), the disclosure of which is incorporated by reference. […]
# CTL 210/9 = experiment: TNF release by CTL 210/9 on COS-7 cells cotransfected with HLA-A2 and cDNA pool or fragment; settings: COS-7 cotransfected with cDNA fragment and HLA-A2
# Description: as §3, §4
Molecule,recognition of complexes of HLA-A2 and peptide by CTL IVSB [1],recognition of peptide by CTL 2/9 [2],recognition of complexes of HLA-A2 and peptide by CTL 210/9 (CTL clone CTL 210/9),TNF release from / recognition by CTL IVSB (CTL IVSB),recognition by CTL 210/9 of antigen on transfected cells (CTL 210/9)
"Tyr Met Asn Gly Thr Met Ser Gln Val (YMNGTMSQV) [SEQ ID NO: 2, tyrosinase derived nonapeptide presented by HLA-A2]",recognition; also recorded: recognized,not,not recognized; also recorded: did not recognize,,
"second gene fragment: fragment from base 1 to base 1092 of SEQ ID NO: 1, not encoding SEQ ID NO: 2 (nucleic acid) DNA: GACCTTGTGAGGACTAGAGGAAGAATGCTCCTGGCTGTTTTGTACTGCCTGCTGTGGAGTTTCCAGACCTCCGCTGGCCATTTCCCTAGAGCCTGTGTCTCCTCTAAGAACCTGATGGAGAAGGAATGCTGTCCACCGTGGAGCGGGGACAGGAGTCCCTGTGGCCAGCTTTCAGGCAGAGGTTCCTGTCAGAATATCCTTCTGTCCAATGCACCACTTGGGCCTCAATTTCCCTTCACAGGGGTGGATGACCGGGAGTCGTGGCCTTCCGTCTTTTATAATAGGACCTGCCAGTGCTCTGGCAACTTCATGGGATTCAACTGTGGAAACTGCAAGTTTGGCTTTTGGGGACCAAACTGCACAGAGAGACGACTCTTGGTGAGAAGAAACATCTTCGATTTGAGTGCCCCAGAGAAGGACAAATTTTTTGCCTACCTCACTTTAGCAAAGCATACCATCAGCTCAGACTATGTCATCCCCATAGGGACCTATGGCCAAATGAAAAATGGATCAACACCCATGTTTAACGACATCAATATTTATGACCTCTTTGTCTGGATGCATTATTATGTGTCAATGGATGCACTGCTTGGGGGATCTGAAATCTGGAGAGACATTGATTTTGCCCATGAAGCACCAGCTTTTCTGCCTTGGCATAGACTCTTCTTGTTGCGGTGGGAACAAGAAATCCAGAAGCTGACAGGAGATGAAAACTTCACTATTCCATATTGGGACTGGCGGGATGCAGAAAAGTGTGACATTTGCACAGATGAGTACATGGGAGGTCAGCACCCCACAAATCCTAACTTACTCAGCCCAGCATCATTCTTCTCCTCTTGGCAGATTGTCTGTAGCCGATTGGAGGAGTACAACAGCCATCAGTCTTTATGCAATGGAACGCCCGAGGGACCTTTACGGCGTAATCCTGGAAACCATGACAAATCCAGAACCCCAAGGCTCCCCTCTTCAGCTGATGTAGAATTTTGCCTGAGTTTGACCCAATATGAATCTGGTTCCATGGATAAAGCTGCCAATTTCAGCTTTAGAAATACACTGGAAGGATTTGCTAGTCCACTTACTGGGATAGCGGAT",,,,did not,recognized
400 base pair fragment: fragment corresponding to bases 711 to 1152 of SEQ ID NO: 1 (nucleic acid) DNA: AAACTTCACTATTCCATATTGGGACTGGCGGGATGCAGAAAAGTGTGACATTTGCACAGATGAGTACATGGGAGGTCAGCACCCCACAAATCCTAACTTACTCAGCCCAGCATCATTCTTCTCCTCTTGGCAGATTGTCTGTAGCCGATTGGAGGAGTACAACAGCCATCAGTCTTTATGCAATGGAACGCCCGAGGGACCTTTACGGCGTAATCCTGGAAACCATGACAAATCCAGAACCCCAAGGCTCCCCTCTTCAGCTGATGTAGAATTTTGCCTGAGTTTGACCCAATATGAATCTGGTTCCATGGATAAAGCTGCCAATTTCAGCTTTAGAAATACACTGGAAGGATTTGCTAGTCCACTTACTGGGATAGCGGATGCCTCTCAAAGCAGCATGCACAATGCCTTGCACATCTATATGAATGGAACAATGTCCCAG,,,,provoked TNF release,

# — patent US6669946B2, “METHOD FOR IDENTIFYING INDIVIDUALS SUFFERING FROM A CELLULAR ABNORMALITY SOME OF WHOSE ABNORMAL CELLS PRESENT COMPLEXES OF HUMAN LEUKOCYTE ANTIGEN TYROSINASE DERIVED PEPTIDES, AND METHODS FOR TREATING SAID INDIVIDUALS” (Ludwig Institute for Cancer Research, priority 1992, dated 2003)
